From US5081149A, “Antihepatopathic method” (Senju Pharmaceutical Co., Ltd., priority 1989, dated 1992)

Assays:
platelet aggregation = conditions: Kokai No. 63-8337 and Japanese Patent Applications Nos. 1-79956 and 1-183484; cited from earlier work
blood coagulation = conditions: Kokai No. 63-8337 and Japanese Patent Applications Nos. 1-79956 and 1-183484; cited from earlier work
[1] = Kokai No. 63-8337 and Japanese Patent Applications Nos. 1-79956 and 1-183484; cited from earlier work
[2] = system: acetaminophen-induced hepatopathy; test: Effects of DCE-GS on acetaminophen-induced hepatopathy in rats; assay type: in vivo, SD-strain male rats; conditions: for LDH (lactate dehydrogenase) / s-GOT / s-GPT / s-TG (serum triglyceride): 1 h before acetaminophen 300 mg/kg i.p., blood at 24 h, mean ± standard error (n = 6 to 8)
Procedure: After 24 hours of fasting, SD-strain male rats weighing 180 g were orally given 200, 400 or 800 mg/kg of S-(α, β-dicarboxyethyl)glutathione (hereinafter referred to as "DCE-GS" for short). A control group was given physiological saline. An hour later, 300 mg/kg acetaminophen was intraperitoneally administered to each rat for causing hepatopathy. Twenty-four hours after acetaminophen administration,blood samples were collected from the rats under pentobarbital anesthesia via the abdominal aorta and subjected to blood biochemistry tests.

[3] = 400 mg/kg oral, *p < 0.05 vs saline
[4] = 800 mg/kg oral, *p < 0.05 vs saline

## N[C@@H](CCC(=O)N[C@@H](CSC(CC(=O)O)C(=O)O)C(=O)NCC(=O)O)C(=O)O (stereo partly drawn) [DCE-GS, S-(α, β-Dicarboxyethyl)glutathione]
Platelet aggregation
  platelet aggregation inhibiting activity: platelet aggregation inhibiting
Blood coagulation
  blood coagulation inhibiting activity: blood coagulation inhibiting
[1]
  antiinflammatory and/or antiallergic activity: antiinflammatory and/or antiallergic activity
[2]; 200 mg/kg oral
  LDH (lactate dehydrogenase): 6029 ± 485 Wrobrewski units
  s-GOT: 1221 ± 179 IU/liter
  s-GPT: 499 ± 66 IU/liter
  s-TG (serum triglyceride): 28.8 ± 5.0 mg/dL
[2]; 400 mg/kg oral
  s-TG (serum triglyceride): 36.1 ± 7.6 mg/dL
[2]; [3]
  LDH (lactate dehydrogenase): 4873 ± 973 Wrobrewski units
  s-GOT: 677 ± 219 IU/liter
  s-GPT: 262 ± 89 IU/liter
[2]; [4]
  LDH (lactate dehydrogenase): 3722 ± 595 Wrobrewski units
  s-GOT: 438 ± 131 IU/liter
  s-GPT: 133 ± 39 IU/liter
  s-TG (serum triglyceride): 53.9 ± 10.4 mg/dL
[2]; 200, 400 or 800 mg/kg oral
  effect on acetaminophen-induced changes in s-GOT, s-GPT, s-LDH and s-TG: dose-dependently suppressed the increases in s-GOT, s-GPT and s-LDH as well as the decrease in s-TG
